From ChEMBL document CHEMBL1121712, “Permethyl analogue of the pyrrolic antibiotic distamycin A” (J Med Chem, 1981) come the findings set out here.

In general, pKa refers to the negative logarithm of the acid dissociation constant. Low readings indicate a stronger acid or weaker base, high ones a weaker acid or stronger base.

Data set [1] has as its system Plasmodium berghei. Put plainly: Mean survival time in blood schizonticidal screen against Plasmodium berghei at 640 mg/kg by Rane assay; Non-toxic. It counts as functional, organism-based. The arrangement: dose 640 mg/kg.
The species named for data set [2] is Mus musculus. Description: Mean survival time at a dose of 25 ug/mL in mouse fibroblasts and Maloney sarcoma transplanted 3T3 fibroblasts by using Rane assay; Nontoxic. In kind it is functional, organism-based.
The nature of data set [3]: Dissociation constant was determined. It counts as physicochemical.

In the case of `Cc1c(NC=O)c(C)n(C)c1C(=O)NCCC(=N)N`, the Mean survival time entry in data set [1] and in data set [2] was “Non-toxic” throughout.
In the case of `Cc1c(NC=O)c(C)n(C)c1C(=O)Nc1c(C)c(C(=O)NCCC(=N)N)n(C)c1C`, the Mean survival time result in data set [1] and in data set [2] was “Non-toxic” in each case.
In data set [3], `Cc1c([N+](=O)[O-])c(C)n(C)c1C(=O)O` registered a pKa of 5.5.
